Test results as given in patent US20190093170A1, “USE OF TRANSLATIONAL PROFILING TO IDENTIFY TARGET MOLECULES FOR THERAPEUTIC TREATMENT” (THE REGENTS OF THE UNIVERSITY OF CALIFORNIA, priority 2013, published 2019).

Tests used:
[1] = test system: PC3 human prostate cancer cells; experiment: RNA-seq mRNA abundance (part of ribosome profiling experiment); type: cell-based; conditions: for PP242 mRNA: 3-hour treatment with PP242 (2.5 μM) in PC3 cells;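 as to all read-outs here: average poly(A) RNA-seq read density per codon over the coding sequence, excluding 15 initial and 5 final codons, mapped to hg19 transcripts, taken as mRNA abundance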
Procedure: Cells were subsequently treated with cycloheximide (100 μg ml^−1; Sigma) and detergent lysis was performed in the dish. The lysate was treated with DNase and clarified, and a sample was taken for RNA-seq analysis. Lysates were subjected to ribosome footprinting by nuclease treatment. Ribosome-protected fragments were purified, and deep sequencing libraries were generated from these fragments, as well as from poly(A) mRNA purified from non-nuclease-treated lysates. These libraries were analyzed by sequencing on an Illumina GAII.
Ribosome footprint and RNA-seq sequencing reads were aligned against a library of transcripts from the UCSC Known Genes database GRCh37/hg19. The first 25 nucleotides of each read were aligned using Bowtie and this initial alignment was then extended to encompass the full fragment-derived portion of the sequencing read while excluding the linker sequence. Read density profiles were then constructed for the canonical transcript of each gene, using only reads with 0 or 1 total mismatches between the read sequence and the reference sequence, comprised of the transcript fragment followed by the linker sequence. Footprint reads were assigned to an A site nucleotide at position +15 to +17 of the alignment, based on the total fragment length; mRNA reads were assigned to the first nucleotide of the alignment. The average read density per codon was then computed for the coding sequence of each transcript, excluding the first 15 and last 5 codons, which can display atypical ribosome accumulation.
Average read density was used as a measure of mRNA abundance (RNA-seq reads) and of protein synthesis (ribosome profiling reads). For most analyses, genes were filtered to require at least 256 reads in the relevant RNA-seq samples. Translational efficiency was computed as the ratio of ribosome footprint read density to RNA-seq read density, scaled to normalize the translational efficiency of the median gene to 1.0 after excluding regulated genes (log 2 fold-change+1.5 after normalizing for the all-gene median). Changes in protein synthesis, mRNA abundance and translational efficiency were similarly computed as the ratio of read densities between different samples, normalized to give the median gene a ratio of 1.0. This normalization corrects for differences in the absolute number of sequencing reads obtained for different libraries.

[2] = test system: YB1, MTA1, vimentin, and CD44; experiment: Western blot and qPCR of invasion genes in PC3 cells; type: cell-based, human; conditions: starting at 6 hr of treatment
Procedure: Western blot analysis was performed as previously described (Hsieh et al., Cancer Cell 17:249-261 (2010)) with antibodies specific to phospho-AKT^S473 (Cell Signaling), AKT (Cell Signaling), phospho-p70S6K^T389 (Cell Signaling), phospho-rpS6^S240/244 (Cell Signaling), rpS6 (Cell Signaling), phospho-4EBP1^T37/46 (Cell Signaling), 4EBP1 (Cell Signaling), 4EBP2 (Cell Signaling), YB1 (Cell Signaling), CD44 (Cell Signaling), LEF1 (Cell Signaling), PTEN (Cell Signaling), eEF2 (Cell Signaling), GAPDH (Cell Signaling), vimentin (BD Biosciences), eIF4E (BD Biosciences), Flag (Sigma), β-actin (Sigma), MTA1 (Santa Cruz Biotechnology), Twist (Santa Cruz Biotechnology), rpL28 (Santa Cruz Biotechnology), HA (Covance) and rictor (Bethyl Laboratory).
RNA was isolated using the manufacturer's protocol for RNA extraction with TRIzol Reagent (Invitrogen) using the Pure Link RNA mini kit (Invitrogen). RNA was DNase-treated with Pure Link Dnase (Invitrogen). DNase-treated RNA was transcribed to cDNA with SuperScript III First-Strand Synthesis System for RT-PCR (Invitrogen), and 1 μl of cDNA was used to run a SYBR green detection qPCR assay (SYBR Green Supermix and MyiQ2, Biorad). Primers were used at 200 nM.

CC(C)n1nc(-c2cc3cc(O)ccc3[nH]2)c2c(N)ncnc21 [PP242]
PP242 mRNA ([1]; gene ACD): 0.20
mRNA ([1]; gene ACTG1): 0.28
mRNA ([1]; gene AGRN): 0.50
mRNA ([1]; gene ALKBH7): 0.51
mRNA ([1]; gene AP2A1): 0.42
mRNA ([1]; gene ARD1A): 0.03
mRNA ([1]; gene ATP5G2): 0.17
PP242 mRNA ([1]; gene C17orf28): 0.21
mRNA ([1]; gene C21orf66): −0.31
PP242 mRNA ([1]; gene CCNA1): −0.33
mRNA ([1]; gene CCNI): 0.24
mRNA ([1]; gene CD44): 0.43
mRNA ([1]; gene CIRBP): 0.54
mRNA ([1]; gene CLPTM1): 0.41
mRNA ([1]; gene COL6A2): 0.57
mRNA ([1]; gene CRTAP): 0.33
PP242 mRNA ([1]; gene DDX51): 0.17
PP242 mRNA ([1]; gene DGCR2): 0.05
mRNA ([1]; gene ECSIT): 0.26
PP242 mRNA ([1]; gene EEF1A1): 0.29
mRNA ([1]; gene EEF1A2): 0.40
mRNA ([1]; gene EEF1D): 0.35
mRNA ([1]; gene EEF1G): 0.15
mRNA ([1]; gene EEF2): 0.76
mRNA ([1]; gene EIF3H): 0.09
mRNA ([1]; gene EIF3L): 0.21
mRNA ([1]; gene EIF4B): 0.61
mRNA ([1]; gene EVPL): 0.38
mRNA ([1]; gene FAM83H): 0.33
mRNA ([1]; gene FAM128B): 0.43
mRNA ([1]; gene FASN): 0.30
mRNA ([1]; gene GLTSCR2): 0.70
mRNA ([1]; gene GNB2L1): 0.27
PP242 mRNA ([1]; gene GTPBP3): 0.15
mRNA ([1]; gene HNRNPA1): 0.27
mRNA ([1]; gene HSPA8): −0.40
mRNA ([1]; gene IMPDH2): 0.21
mRNA ([1]; gene LAMA5): 0.40
mRNA ([1]; gene LMF2): 0.62
PP242 mRNA ([1]; gene MAPK6): 0.10
PP242 mRNA ([1]; gene MAPKAPK2): −0.22
mRNA ([1]; gene MTA1): 0.21
mRNA ([1]; gene NCLN): 0.29
PP242 mRNA ([1]; gene NFATC21P): 0.08
PP242 mRNA ([1]; gene NR2F1): 0.87
mRNA ([1]; gene PABPC1): 0.16
mRNA ([1]; gene PABPC4): 0.40
mRNA ([1]; gene PACS1): 0.45
mRNA ([1]; gene PFDN5): 0.04
mRNA ([1]; gene PGLS): 0.21
mRNA ([1]; gene PGM1): 0.23
mRNA ([1]; gene PNKP): 0.33
PP242 mRNA ([1]; gene PRKD3): −0.46
mRNA ([1]; gene PTGES2): 0.17
mRNA ([1]; gene RABGGTB): 0.20
PP242 mRNA ([1]; gene RBPJ): 0.17
mRNA ([1]; gene RPL3): 0.22
mRNA ([1]; gene RPL4): 0.10
mRNA ([1]; gene RPL7): 0.01
mRNA ([1]; gene RPL7A): 0.15
mRNA ([1]; gene RPL9): −0.08
mRNA ([1]; gene RPL10): 0.25
mRNA ([1]; gene RPL10A): 0.14
mRNA ([1]; gene RPL11): 0.14
mRNA ([1]; gene RPL12): 0.12
mRNA ([1]; gene RPL13): 0.26
mRNA ([1]; gene RPL13A): 0.30
mRNA ([1]; gene RPL15): 0.19
mRNA ([1]; gene RPL18A): 0.23
mRNA ([1]; gene RPL19): 0.11
mRNA ([1]; gene RPL21): −0.04
mRNA ([1]; gene RPL22): 0.00
mRNA ([1]; gene RPL24): 0.00
mRNA ([1]; gene RPL26): 0.02
mRNA ([1]; gene RPL27): −0.13
mRNA ([1]; gene RPL27A): 0.07
mRNA ([1]; gene RPL28): 0.22
PP242 mRNA ([1]; gene RPL28): 0.55
mRNA ([1]; gene RPL31): 0.05
mRNA ([1]; gene RPL32): 0.11
mRNA ([1]; gene RPL34): 0.04
mRNA ([1]; gene RPL36A): −0.01
mRNA ([1]; gene RPL37A): 0.01
mRNA ([1]; gene RPL39): −0.15
PP242 mRNA ([1]; gene RPL39): −0.42
mRNA ([1]; gene RPL41): −0.01
mRNA ([1]; gene RPLP0): 0.12
mRNA ([1]; gene RPLP1): 0.12
mRNA ([1]; gene RPLP2): 0.14
mRNA ([1]; gene RPS2): 0.20
mRNA ([1]; gene RPS3): 0.24
mRNA ([1]; gene RPS3A): −0.06
mRNA ([1]; gene RPS4X): 0.12
mRNA ([1]; gene RPS5): 0.23
mRNA ([1]; gene RPS7): −0.04
mRNA ([1]; gene RPS9): 0.34
mRNA ([1]; gene RPS12): 0.04
mRNA ([1]; gene RPS13): −0.08
mRNA ([1]; gene RPS14): 0.16
mRNA ([1]; gene RPS15): 0.21
mRNA ([1]; gene RPS15A): 0.07
mRNA ([1]; gene RPS19): 0.23
mRNA ([1]; gene RPS20): −0.01
PP242 mRNA ([1]; gene RPS20): −0.10
mRNA ([1]; gene RPS21): 0.09
mRNA ([1]; gene RPS25): −0.04
mRNA ([1]; gene RPS27): 0.07
PP242 mRNA ([1]; gene RPS27): 0.06
mRNA ([1]; gene RPS27A): −0.04
mRNA ([1]; gene RPS28): 0.28
PP242 mRNA ([1]; gene SDCCAG10): −0.37
mRNA ([1]; gene SLC19A1): 0.10
mRNA ([1]; gene TKT): 0.33
mRNA ([1]; gene TPT1): 0.01
mRNA ([1]; gene TSC2): 0.21
mRNA ([1]; gene UBA52): 0.18
PP242 mRNA ([1]; gene UBTD2): 0.25
PP242 mRNA ([1]; gene UCHL5): −0.51
PP242 mRNA ([1]; gene VHL): 0.43
mRNA ([1]; gene VIM): 0.67
mRNA ([1]; gene YB1): 0.24
expression of YB1, MTA1, vimentin, and CD44 at the protein but not transcript level [2]: selective decrease
